Measured values from publication PMC11583740, “Genotype-specific effects of elamipretide in patients with primary mitochondrial myopathy: a post hoc analysis of the MMPOWER-3 trial” (Orphanet Journal of Rare Diseases, 2024).

Columns and labels:
[1] = system: subjects with Barth Syndrome; details: after approximately 36 weeks in the 168-week open-label phase; n = 8; p = 0.02; cited from earlier work
Description: NuPOWER was designed to evaluate the efficacy and tolerability of elamipretide in nPMD subjects, with the primary efficacy endpoint being distance walked (meters) on the 6MWT [11]. Elamipretide was also studied in subjects with Barth Syndrome (TAZPOWER, SPIBA-201, NCT03098797), which ...

[2] = system: adult patients with primary mitochondrial myopathy (PMM); details: elamipretide 40 mg s.c. once daily; nDNA cohort n = 59; placebo 0.3 m; p = 0.03; previously published post-hoc analysis; cited from earlier work
Description: Baseline functional characteristics of these patients is described elsewhere. At week 24, subjects in ...

[3] = system: adult patients with primary mitochondrial myopathy (PMM); details: post-hoc genetic subgroup analysis of the co-primary endpoint; previously published; cited from earlier work
Protocol: Elamipretide is the first experimental therapeutic compound progressing to a Phase 3 clinical trial in patients with PMM (MMPOWER-3). This trial followed the Phase 1/2 (MMPOWER-1) and Phase 2 (MMPOWER-2) clinical trials, in which treatment with elamipretide was analyzed in patients with PMM.

[4] = system: adult patients with primary mitochondrial myopathy (PMM); experiment: Six-Minute Walk Test (6MWT) in the MMPOWER-3 Phase 3 trial, post hoc analysis by genotype; assay type: in vivo, human
Protocol: Full details of MMPOWER-3 have been previously described. In brief, MMPOWER-3 was a 24-week, randomized (1:1), double-blind, parallel-group, placebo-controlled clinical trial for adult patients with PMM, in which subjects received elamipretide 40 mg subcutaneously once daily or placebo [6]. In the original analysis of MMPOWER-3, subjects were stratified by the type of pathogenic DNA variant (nDNA vs mtDNA) determined to be the primary cause of PMM as approved by the adjudication committee. Pathogenic DNA variants causing PMM were subclassified as causing mtDNA or nDNA disorders. The prespecified exploratory analysis was conducted to further examine the effects of elamipretide on the change from baseline to week 24 in the 6MWT by genetic subgroups. Subject demographics at baseline have been previously published in detail.
In the original analysis of MMPOWER-3, the efficacy of elamipretide was analyzed by genetic pathogenic variant subclass (mtDNA vs. nDNA) utilizing a mixed model repeated measures (MMRM). In the new exploratory analysis, the effect of elamipretide on the least squares (LS) mean change from baseline in distance walked on the 6MWT at 4 weeks, 12 weeks, and end of treatment (week 24) was examined as a function of gene variants using subjects from the MMPOWER-3 per-protocol population who successfully completed the trial. The analysis evaluated 6MWT results by specific mtDNA and nDNA genotypes. Efficacy in the mtDNA replisome subgroup was further assessed by the presence of the chronic progressive external ophthalmoplegia (CPEO) as a phenotype.

## elamipretide
[1]
  Improvement in 6MWT, Barth Syndrome: 95.9 m
[2]
  6MWT improvement, nDNA cohort: 25.2 m
[3]
  PMMSA TFS, nDNA cohort compared with mtDNA cohort: did not demonstrate a differential effect
[4]; elamipretide 40 mg s.c. once daily, 24 weeks, n = 21, placebo (n = 28) 42.4 m
  6MWT change from baseline, MT-TL1 pathogenic variants: 25.3 m
[4]; elamipretide 40 mg s.c. once daily, mtDNA replisome cohort, placebo 2.0 ± 8.6 m, p = 0.06
  6MWT improvement (change from baseline), mtDNA replisome post-hoc cohort: 25.2 ± 8.7 m
[4]; elamipretide 40 mg s.c. once daily, week 24, n = 18, baseline mean 316.5 ± 17.5, placebo (n = 14) −8.0 ± 10.7 m, p = 0.0024
  LS mean (SE) change from baseline in 6MWT, replisome variants with CPEO phenotype: 37.3 ± 9.5 m
[4]; elamipretide 40 mg s.c. once daily, week 24, n = 73, placebo (n = 73) 24.1 ± 6.3 m
  LS mean (SE) change from baseline in distance walked on 6MWT, mtDNA pathogenic variants: 14.9 ± 6.4 m
[4]; week 24, elamipretide vs placebo, difference in favor of placebo
  Between-group difference in 6MWT change, mtDNA pathogenic variants: 9.2 m
[4]; week 24, n = 49
  6MWT difference elamipretide vs placebo, single mtDNA deletions: no observable differences
